Laboratory results reported in publication PMC6957531, “A butanolic fraction from the standardized stem extract of Cassia occidentalis L delivered by a self-emulsifying drug delivery system protects rats from glucocorticoid-induced osteopenia and muscle atrophy” (Scientific Reports, 2020).

How the values were obtained:
[1] = in vivo; details: rat; for AUC / Cmax / increase of relative bioavailability by CSE-BuF compared to CSE-Bu / %Fr (relative bioavailability): male, Sprague Dawley; for AUC / Cmax / %Fr (relative bioavailability): 250 mg/kg
Experimental: All analytes were analyzed using API-QTRAP 4000 mass spectrometer (ABSciex, Canada) equipped with electrospray ionization (ESI) source in negative ion ([M-H]^−) mode [apigenin, isovitexin, emodin, luteolin, 3′,4′,7-trihydroxyflavone (THF), and fenofibric acid (FFA)] and quantified using Analyst 1.6 software (Applied Biosystems, MDS Sciex Toronto, Canada). Quantification was performed by multi-reaction monitoring (MRM), by monitoring the parent ion to product ion transition of 269.3/116.9 for apigenin, 431.2/311 for isovitexin, 269.1/224.9 for emodin, 284.9/133 for luteolin, 268.9/132.8 for THF, 316.9/230.9 for FFA (IS for apigenin, isovitexin, emodin, luteolin, and THF). Compound parameters, viz. declustering potential (V), entrance potential (V), collision energy, collision exit potential were −76, −10, −49, and −5 for apigenin; −100, −10, −20 and −15 for isovitexin; −100, −10, −40, and −10 for emodin; −100, −10, −50, and −20 for luteolin; −100, −10, −40, and −10 for THF; −55, −10, −12 and −10 for FFA; respectively. Source parameters, viz. curtain gas (psi), collision gas, ionspray voltage (V), ion source temperature (°C), nebulizer gas (GS1, psi) and turbo ion gas (GS2, psi) for apigenin, isovitexin, emodin, luteolin, THF, and FFA were 30, high, −4500, 500, 50, 50 respectively.
Shimadzu UFLC system (Kyoto, Japan) equipped with a binary pump (LC-20AD), a degasser (DGU-20A3), an autosampler (SIL-HTc) and a column oven (CTO-20AC) was used to inject the samples. The chromatographic separation of apigenin, isovitexin, emodin, luteolin, THF and FFA were performed on Phenomenex Luna (C18 (2), 100A, 150 × 4.6 mm, 3 μ) column with a mobile phase consisting of methanol: 10 mM ammonium acetate, 95:05 (v/v) at 0.6 mL/min flow rate. The temperature of the column oven was set at 40 °C during analysis. 10 µL samples were injected for quantification.
For extraction of apigenin, isovitexin, emodin, luteolin, THF, liquid-liquid extraction (LLE) method was applied for processing rat plasma. Plasma (100 µL) was incubated with 50 µL β-glucuronidase enzyme (2 mg/mL in 100 mM ammonium acetate buffer pH 5), and 50 µL ammonium acetate buffer (100 mM, pH 5) for 2 h at 37°C on water shaking bath. 200 µL ACN containing IS (FFA, 100 ng/mL) was added to plasma, vortex for 15 sec, and then 100 µL 0.1% formic acid (in 10 mM ammonium formate) was added. After vortexing for 5 min on vortexer (IKA^(R) VIBRAX VXR basic) at 1200 rpm, 2 mL ethyl acetate was added. The mixture was again vortexed for 10 min and then centrifuged at 10000 rpm for 5 min. The supernatant (1.5 mL) was transferred into Ria vial and completely dried in a TurboVap. The dried residue was reconstituted with 100 µL of mobile phase and analyzed by LC-MS/MS[44].
For determination of osteogenic compounds in the plasma of rats given CSE-Bu and CSE-BuF, we recruited male Sprague Dawley (SD) rats (220 ± 20 g) and were fasted overnight with free access to water. Rats were divided into 2 groups consisting of 6/group. One group received CSE-Bu (250 mg/kg/oral) and the other received CSE-BuF (250 mg/kg/oral). Blood (300 µL) was collected into 0.5 ml centrifuged tube containing EDTA at 0.25, 0.5, 1, 2, 4, 8, 12, 24, and 48 h and plasma was separated followed by centrifugation at 10000 rpm for 10 min and stored at -80 °C for further analysis. For pharmacokinetic analysis, plasma concentration versus time was plotted and analyzed by non-compartmental analysis method using WinNonlin (Pharsight, Mountain View, CA) software.

[2] = design: method as in PMID 30703497; details: cited from earlier work
[3] = tested on: bone; details: cited from earlier work
[4] = format: in vivo
Experimental: (§1) All treatments lasted for 4 weeks.
Body composition of live rats was analyzed using an Echo-MRI Body Composition Analyzer E26-226-RM (EchoMRI LLC, USA) as per our previously described method[14],[47]–[50].

[5] = tested on: femur diaphysis; experiment: GIO model: bone dynamic histomorphometry (double calcein labeling); format: in vivo, male SD rats; details: versus control (Veh)
Experimental: as §1
For dynamic histomorphometric measurements, double calcein labeling was performed with an interval of 10 days between two calcein injections. We measured the periosteal perimeter, single-labeled surface (sLS), double labeled surface (dLS), and interlabeled thickness (IrLTh).

[6] = tested on: L5 vertebra and femur diaphysis; experiment: GIO model: bone strength (L5 compression, femur 3-point bending); format: in vivo, male SD rats
Experimental: as §1
Bone mechanical strength was measured by three-point bending test for femur diaphysis and compression test for L5 vertebrae using a bone strength tester TK 252 C (Muromachi Kikai Co. Ltd, Tokyo, Japan) according to a previously published protocol[14],[52].

[7] = tested on: serum PINP, CTX-I, sclerostin (SOST); experiment: GIO model: serum biochemical markers by ELISA; format: in vivo, male SD rats
Experimental: as §1
(§2) The serum samples were collected from blood by centrifugation at 3000 rpm. Serum cross-linked C-telopeptide of Type I collagen (CTX-I), procollagen type I N-terminal propeptide (PINP), sclerostin (SOST), interleukin 1 beta (IL-1β) levels were determined by ELISA (MyBioSource, USA) following the manufacturer’s protocols.

[8] = tested on: miR-29a, miR-17, miR-20a; experiment: GIO model: miRNA expression in bones (TaqMan assay); design: species or system male SD rats; details: rat, in vivo
From the text: as §1
TaqMan assay (Thermo Fisher Scientific, USA) was used to determine miRNA expression in bones. Specific assay was designed based on published sequence using Thermo Fisher miRNA assay design tool. Assay ID of different miRNA was; hsa-miR-29a (OO2112), hsa-miR-17 (OO2308), hsa-miR-20a (OOO580) and U6 snRNA (OO1973)[54].

[9] = tested on: GILZ mRNA in thymus and bone; serum IL-1β; experiment: Evaluation of the anti-inflammatory response (GILZ mRNA, serum IL-1β); design: species or system male SD rats; details: rat, in vivo
Experimental: as §2
Primer sequences are listed below:
Serum IL-1β level were measured to evaluate the effect of CSE-BuF on glucocorticoid-mediated anti-inflammatory response.

[10] = tested on: gastrocnemius muscle; experiment: GIO model: muscle histomorphometry; format: in vivo, male SD rats; details: versus control
Experimental: as §1
Gastrocnemius muscles were carefully dissected and stored in chilled PBS for 48 h. Tissues were then transferred to 30% sucrose solution (in PBS) at 4 °C until they sank to the bottom. Tissues were embedded in OCT tissue freezing medium (Leica Bio systems, India) and cryo-sections (7 µm) were made using a Cryotome™ FSE Cryostat (Thermo Scientific). Tissue sections were collected on poly-L-lysine coated slides. For H&E staining, sections were rehydrated in PBS for 10 min and fixed in 10% formalin for 3 min. Then H&E staining was performed and mounted with DPX (Sigma). Quantitative analysis for determining cross-sectional area and Feret’s diameter of the muscle fibers were performed using Image J software[50],[56].

[11] = tested on: atrogin 1 and MuRF1 in gastrocnemius muscle; experiment: GIO model: immunoblotting of muscle atrogenes; design: species or system male SD rats; details: rat, in vivo
Experimental: as §1
Gastrocnemius muscle samples were collected from each group and protein lysates were prepared to determine the levels of muscle atrogenes [atrogin 1], and muscle ring finger protein (MuRF1). Relative expression of these proteins was detected by immunoblot analysis using specific antibodies againts atrogin 1 (Abcam; 1:1000 dilution), MuRF1 (Santa Cruz Biotechnology; 1:1000 dilution), and GAPDH (Merck Millipore; 1:1000 dilution). Densitometric analyses of immunoblots were performed using ImageJ software.

[12] = tested on: OCN, TRAP, DMP-1, MEPE, RANKL mRNA in bones; experiment: GIO model: osteoblast-, osteoclast- and osteocyte-specific genes in bones by qPCR; details: rat, in vivo
[13] = in vivo, AUC, CSE-BuF at 250 mg/kg orally, rat plasma, Mean ± SD
[14] = in vivo, CSE-BuF at 250 mg/kg orally, rat plasma, Mean ± SD
[15] = 4 weeks, MP 5 mg/kg s.c. daily, CSE-BuF 50 mg/kg oral daily, mean ± SEM, n = 10/group

Structure (SMILES)	AUC ([1]; po, AUC) [ng·h/mL]	Cmax ([1]; po) [ng/mL]	plasma level after single oral dosing of CSE-Bu (in words) [1]	plasma level after single oral dosing of CSE-BuF (in words) [1]	AUC [1, 13] [ng·h/mL]	Cmax [1, 14] [ng/mL]	in vivo bone conserving effect [3]	increase of relative bioavailability by CSE-BuF compared to CSE-Bu ([1]; po) [%]	%Fr (relative bioavailability) ([1]; po) [%]	also measured
O=c1cc(-c2ccc(O)c(O)c2)oc2cc(O)ccc12 [3′,4′,7-trihydroxyflavone (THF), 3′,4′,7-trihydroxyflavone]	764 ± 382	201 ± 107	not detectable	detectable and measured in plasma						
O=c1cc(-c2ccc(O)cc2)oc2cc(O)c([C@@H]3O[C@H](CO)[C@@H](O)[C@H](O)[C@H]3O)c(O)c12 [Apigenin 6-C-glucoside Or Isovitexin, Apigenin 6-C-glucoside]			not detectable	detectable and measured in plasma	17.9 ± 10.4	7.74 ± 4.29				osteogenic effect in vitro among compounds of CSE-Bu [2]: best osteogenic effect in vitro; in vivo osteogenic effect ([3]; mice, ref unpublished data, S. Pal and N. Chattopadhyay): has in vivo osteogenic effect in mice
O=c1cc(-c2ccc(O)cc2)oc2cc(O)cc(O)c12 [Apigenin]	2.2 ± 1.15	3.98 ± 3.03	not detectable	detectable and measured in plasma			in vivo bone conserving effect has been reported			
Cc1cc(O)c2c(c1)C(=O)c1cc(O)cc(O)c1C2=O [Emodin]			could be measured in plasma	increases	239 ± 31.1	29.2 ± 13	in vivo bone conserving effect has been reported	279	379.68 ± 87.63	AUC ([1]; in vivo, AUC, CSE-Bu at 250 mg/kg orally, rat plasma, Mean ± SD): 69.3 ± 33.2 ng·h/mL; Cmax ([1]; in vivo, CSE-Bu at 250 mg/kg orally, rat plasma, Mean ± SD): 12.3 ± 3.8 ng/mL
O=c1cc(-c2ccc(O)c(O)c2)oc2cc(O)cc(O)c12 [Luteolin]	259 ± 144		could be measured in plasma	increases			in vivo bone conserving effect has been reported	36	136.94 ± 17.14	AUC ([1]; po): 456.33 ± 131.28 ng·h/mL
C[C@H]1C[C@@H]2[C@H]([C@@H](O)C[C@@]3(C)[C@H]2CC[C@]3(O)C(=O)CO)[C@@]2(C)C=CC(=O)C=C12 [MP, Methylprednisolone]										Body weight [4, 15]: 239.86 ± 5.71 gm; Fat Mass [4, 15]: 6.12 ± 0.58 %; Lean Mass [4, 15]: 71.96 ± 2.43 %; decrease of fat mass compared to control ([4]; rat, in vivo): 40%; decrease of lean mass compared to control ([4]; rat, in vivo): 11%; mineralizing surface (pMS/BS), mineral apposition rate (pMAR) and bone formation rate (pBFR/BS) [5]: significant decreases; strength parameters (peak load, energy to failure and stiffness) [6]: decreased all strength parameters; serum sclerostin ([7]; rat, in vivo): significantly increased; serum CTX-I (bone resorption marker) ([7]; versus control (Veh)): increased; serum PINP (bone formation marker) ([7]; versus control (Veh)): suppressed; levels of miRNA 17, 20a and 29a in bones [8]: significant decreases; GILZ mRNA in thymus and bone [9]: robust increase; serum IL-1β [9]: suppressed; cross-sectional area and Feret's diameter of gastrocnemius muscle [10]: significantly reduced; atrogin and MuRF-1 protein levels in muscle [11]: increased; RANKL mRNA in bones [12]: robust increase; TRAP mRNA in bones [12]: robust increase; mRNA levels of osteocyte markers DMP-1 and MEPE in bones [12]: significant decrease; osteocalcin (OCN) mRNA level in bones [12]: significantly suppressed
